Experiments:
aggregated Aβ = aggregated Aβ (Homo sapiens, UniProt P05067); test: Fluorescent detection of Aβ in vitro; format: binding
Aβ = test: Example 4: detection of Aβ in the retina of a TBI (blast) mouse model; format: in vivo; conditions: after Compound 9 intravenously, example in present tense
Protocol: This example is conducted to determine whether Compound 9 detects Aβ in the retina of a TBI mouse model.
Blast model mice 24 hours after injury and a non-injured mouse are administered Compound 9 intravenously. Mice retinas are scanned by scanning laser ophthalmoscopy (SLO).
Alternatively, or in addition to retinal scanning, retinal tissues are removed and stained with an anti-Aβ antibody (6E10).

Aβ40 [1] = target: Aβ40 (Homo sapiens, UniProt P05067, D694N/E693Q); test: Example 8: in vivo retinal imaging and ex vivo IHC of APPSwDI, PSAPP and wild type mice; set-up: species or system mouse; conditions: APPSwDI mouse
Aβ40 [2] = test: as above; set-up: species or system mouse; conditions: PSAPP mouse
[3] = 15 minutes after iv Compound 10
[4] = labelling from in vivo injection of Compound 10

## N#C/C(=C\c1ccc2cc(N3CCCCC3)ccc2c1)C(=O)NCCOCCOCCO [Compound 7, (E)-2-cyano-N-(2-(2-(2-hydroxyethoxy)ethoxy)ethyl)-3-(6-(piperidin-1-yl)naphthalen-2-yl)acrylamide]
Aggregated Aβ
  Detection of aggregated Aβ in vitro: demonstrated the ability to detect aggregated Aβ
Aβ; mouse with blast injury
  Fluorescent labelling of retinal deposits: fluorescently labels retinal deposits that are visible upon fluorescent activation
Aβ; uninjured mouse
  Fluorescent enhancement in retinal tissue: does not display any fluorescent enhancement
Aβ40 [1]; [3]
  Labelling in brain sections, ex vivo IHC: amyloid deposits along a vessel labeled with Compound 7 and 6E10
Aβ40 [1]; administered as Compound 10
  Structures labelled in retinal tissue: labels both vessels and diffuse deposits in the retinal tissue
Aβ40 [1]; [4]
  Co-localization with 6E10 in retina, ex vivo IHC: co-localized with a sequence specific antibody for Aβ (6E10)
Aβ40 [2]; [3]
  Labelling in brain sections, ex vivo IHC: labeling of amyloid plaques with Compound 7 and 6E10
Aβ40 [2]; [4]
  Co-localization with 6E10 in retina, ex vivo IHC: co-localization of Compound 7 with 6E10
